This is an account of results in patent US20200216416A1, “QUINOLINE COMPOUNDS AS INHIBITORS OF TAM AND MET KINASES” (Array BioPharma Inc., priority 2019, published 2020).

In general, IC50 refers to the concentration that inhibits the measured activity by half.

The target in assay [1] is T1, GST-tagged recombinant human TYRO3 kinase domain (Homo sapiens, UniProt Q06418).
T1 construct: GST-tagged recombinant human TYRO3 kinase domain; purchased Carna PR7480A
T1 sequence (Q06418 518-790 limits assumed): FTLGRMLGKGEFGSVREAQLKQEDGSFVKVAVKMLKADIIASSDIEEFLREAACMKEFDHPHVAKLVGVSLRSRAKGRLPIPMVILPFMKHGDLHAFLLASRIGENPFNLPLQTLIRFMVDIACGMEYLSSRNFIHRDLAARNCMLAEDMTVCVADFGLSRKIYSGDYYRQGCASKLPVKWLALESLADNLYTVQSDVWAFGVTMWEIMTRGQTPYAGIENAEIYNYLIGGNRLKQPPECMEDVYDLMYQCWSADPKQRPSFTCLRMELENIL
Nature of the assay: TYRO3 Enzyme Assay (LanthaScreen Eu Kinase Binding). The following applies: averaged IC50; TYRO3 5 nM; 60-minute incubation at 22° C.; TR-FRET. As for the experimental part:
Compounds disclosed herein were screened for their ability to inhibit TYRO3 kinase using Invitrogen's LanthaScreenTM Eu Kinase Binding technology. GST-tagged recombinant human TYRO3 kinase domain from Carna (5 nM; Cat. No. P[…]) was incubated with 20 nM Alexa-Fluor® Tracer 236 (P[…]) and 2 nM Europium-anti-GST (Cat. No. A15116) along with test compound in a buffer consisting of 25 mM HEPES, pH 7.4, 10 mM MgCl2, 0.01% Triton X-100, and 2% DMSO. Compounds are typically prepared in a threefold serial dilution in DMSO and added to the assay to give the appropriate final concentration. After a 60-minute incubation at 22° C., the reaction was measured using a PerkinElmer EnVision multimode plate reader via TR-FRET dual wavelength detection, and the percent of control (POC) calculated using a ratiometric emission factor. […] The POC values were fit to a 4 parameter logistic curve and the IC50 value is point where the curve crosses 50 POC.

For assay [2], the target named is T2, human MET kinase del Ex14 (Homo sapiens, UniProt P08581, DEL963-1009).
T2 construct: GST-tagged recombinant human MET kinase domain; purchased Signal Chem
Nature of the assay: c-Met Enzyme Assay, del Ex14 mutant. The assay is classed as binding. The following applies: averaged IC50; del Ex14 5 nM; 60-minute incubation at 22° C.; read-out: Del14 IC50. As for the experimental part: The affinity of compound binding to wild type and mutant human MET kinases was measured using Invitrogen's LanthaScreen™ Eu Kinase Binding technology. Briefly, GST-tagged recombinant human MET kinase domain from Signal Chem (see Table 8 below for concentration in assay) was incubated with 50 nM Alexa-Fluor® Tracer 236 (Invitrogen Cat No. PR9078A) and 2 nM Europium-anti-GST (Invitrogen Cat. No. A15116) along with test compound in a buffer consisting of 25 mM HEPES, pH 7.4, 10 mM MgCl2, 0.01% Triton X-100, 1mM DTT, and 2% DMSO. Compounds were typically prepared in a three-fold serial dilution in DMSO and added to the assay to give the appropriate final concentration. After a 60-minute incubation at 22° C., the reaction was measured using a PerkinElmer EnVision multimode plate reader via TR-FRET dual wavelength detection, and the percent of control (POC) calculated using a ratiometric emission factor. […] The POC values were fit to a 4 parameter logistic curve and the IC50 value is point where the curve crosses 50 POC.

T2 sequence (P08581 with tags, fused parts or gaps DEL963-1009 limits assumed): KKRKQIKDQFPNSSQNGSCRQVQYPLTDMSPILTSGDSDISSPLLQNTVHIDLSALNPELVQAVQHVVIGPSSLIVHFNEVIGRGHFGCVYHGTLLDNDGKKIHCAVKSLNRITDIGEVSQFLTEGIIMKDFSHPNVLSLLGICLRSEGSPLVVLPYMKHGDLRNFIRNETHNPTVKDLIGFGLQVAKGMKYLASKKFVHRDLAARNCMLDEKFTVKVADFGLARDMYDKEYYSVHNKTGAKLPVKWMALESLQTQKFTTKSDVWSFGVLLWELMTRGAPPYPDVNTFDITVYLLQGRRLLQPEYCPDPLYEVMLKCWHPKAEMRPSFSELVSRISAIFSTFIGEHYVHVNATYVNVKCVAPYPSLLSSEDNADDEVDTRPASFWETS

As for `CCC(CC)n1cc(C(=O)Nc2ccc(Oc3ccnc4cc(OC)c(OC)cc34)cn2)c(=O)c(-c2ccc(F)cc2F)c1` [Example 16, 5-(2,4-difluorophenyl)-N-(5-((6,7-dimethoxyquinolin-4yl)oxy)pyridin-2-yl)-4-oxo-1-(pentan-3-yl)-1,4-dihydropyridine-3-carboxamide], the IC50 was 11 nM in assay [1] and 4.6 nM in assay [2].

In the case of `COc1cc2nccc(Oc3ccc(NC(=O)c4cn(C)c(C(C)C)c(-c5ccc(F)cc5)c4=O)nc3)c2cc1OC` [Example 45, N-(5-((6,7-dimethoxyquinolin-4-yl)oxy)pyridin-2-yl)-5-(4-fluorophenyl)-6-isopropyl-1-methyl-4-oxo-1,4-dihydropyridine-3-carboxamide], the figures for the IC50 in assay [1] and in assay [2] were 91 nM and 5.7 nM, respectively.

`COc1cc2nccc(Oc3ccc(NC(=O)c4cn(C)cc(-c5ccc(F)cc5)c4=O)nc3)c2cc1OC` [Example 2]: the half-maximal inhibitory concentration (IC50) was 6 nM in assay [1] and 5.3 nM in assay [2].

With `COc1cc2nccc(Oc3ccc(NC(=O)c4cn(CC(C)(C)O)cc(-c5ccc(F)cc5)c4=O)nc3)c2cc1OC` [Example 9, N-(5-((6,7-dimethoxyquinolin-4-yl)oxy)pyridin-2-yl)-5-(4-fluorophenyl)-1-(2-hydroxy-2-methylpropyl)-4-oxo-1,4-dihydropyridine-3-carboxamide], the IC50 in assay [1] is 13 nM; in assay [2], 5.6 nM.

Turning to `CCOc1ccc2c(Oc3ccc(NC(=O)c4cn(C(C)C)cc(-c5ccc(F)cc5)c4=O)nc3)ccnc2c1` [Example 52, N-(5-((7-ethoxyquinolin-4-yl)oxy)pyridin-2-yl)-5-(4-fluorophenyl)-1-isopropyl-4-oxo-1,4-dihydropyridine-3-carboxamide], the results for the IC50 in assay [1] and in assay [2] were 18 nM and 10.3 nM, respectively.

Regarding `COc1cc2c(Oc3ccc(NC(=O)c4cn(C(C)C)cc(-c5ccc(F)cc5)c4=O)nc3)ccnc2cc1F` [Example 49, N-(5-((7-fluoro-6-methoxyquinolin-4yl)oxy)pyridin-2-yl)-5-(4-fluorophenyl)-1-isopropyl-4-oxo-1,4-dihydropyridine-3-carboxamide], the IC50 in assay [1] came to 58 nM; in assay [2], 22 nM.

With `COc1ccc2nccc(Oc3ccc(NC(=O)c4cn(C(C)C)c(C)c(-c5ccc(F)cc5)c4=O)nc3)c2c1` [Example 33, 5-(4-fluorophenyl)-1-isopropyl-N-(5-((6-methoxyquinolin-4-yl)oxy)pyridin-2-yl)-6-methyl-4-oxo-1,4-dihydropyridine-3-carboxamide], the concentration for half-maximal inhibition (IC50) in assay [1] turned out to be 10 nM; in assay [2], 4.9 nM.

Turning to `COc1cc2nccc(Oc3ccc(NC(=O)c4cn(C(C)C)cc(-c5ccc(F)cc5F)c4=O)nc3)c2cc1OC` [Example 4], the IC50 in assay [1] was 5 nM; in assay [2] it was 1.7 nM.

For the compound `COc1cc(-c2cn(C(C)C)cc(C(=O)Nc3ccc(Oc4ccnc5cc(OC)c(OC)cc45)cn3)c2=O)ccc1F` [Example 20, N-(5-((6,7-dimethoxyquinolin-4yl)oxy)pyridin-2-yl)-5-(4-fluoro-3-methoxyphenyl)-1-isopropyl-4-oxo-1,4-dihydropyridine-3-carboxamide], the half-inhibitory concentration (IC50) in assay [1] amounted to 6 nM; in assay [2] it was 3.8 nM.

In the case of `COc1cc2nccc(Oc3ccc(NC(=O)c4cn(CC5CCOCC5)cc(-c5ccc(F)cc5)c4=O)nc3)c2cc1OC` [Example 8, N-(5-((6,7-dimethoxyquinolin-4-yl)oxy)pyridin-2-yl)-5-(4-fluorophenyl)-4-oxo-1-((tetrahydro-2H-pyran-4-yl)methyl)-1,4-dihydropyridine-3-carboxamide], the IC50 in assay [1] worked out at 15 nM; in assay [2], 3.9 nM.

On to `COc1ccc2nccc(Oc3ccc(NC(=O)c4cn(C)cc(-c5ccc(F)cc5)c4=O)nc3)c2c1` [Example 41, 5-(4-fluorophenyl)-N-(5-((6-methoxyquinolin-4yl)oxy)pyridin-2-yl)-1-methyl-4-oxo-1,4-dihydropyridine-3-carboxamide], for which the IC50 was 141 nM in assay [1] and 108 nM in assay [2].

Consider `COc1cc2nccc(Oc3ccc(NC(=O)c4cn(C(C)C)cc(-c5ccc(F)cc5C)c4=O)nc3)c2cc1OC` [Example 19, N-(5-((6,7-dimethoxyquinolin-4yl)oxy)pyridin-2-yl)-5-(4-fluoro-2-methylphenyl)-1-isopropyl-4-oxo-1,4-dihydropyridine-3-carboxamide], for which the IC50 in assay [1] was 4 nM; in assay [2], 1.9 nM.

For the compound `COc1cc2nccc(Oc3ccc(NC(=O)c4cn(CCN(C)C)cc(-c5ccc(Cl)cc5)c4=O)nc3)c2cc1OC` [Example 42], the IC50 in assay [1] stood at 16 nM; in assay [2], 1.9 nM.

In the case of `COc1cc2c(Oc3ccc(NC(=O)c4cn(C(C)C)c(C)c(-c5ccc(F)cc5)c4=O)nc3)ccnc2cc1F` [Example 48, N-(5-((7-fluoro-6-methoxyquinolin-4yl)oxy)pyridin-2-yl)-5-(4-fluorophenyl)-1-isopropyl-6-methyl-4-oxo-1,4-dihydropyridine-3-carboxamide], the IC50 came to 10 nM in assay [1] and 4.9 nM in assay [2].

Take `COc1cc2nccc(Oc3ccc(NC(=O)c4cn(C5CCOCC5)cc(-c5ccc(F)cc5)c4=O)nc3)c2cc1OC` [Example 12, N-(5((6,7-dimethoxyquinolin-4-yl)oxy)pyridin-2-yl)-5-(4-fluorophenyl)-4-oxo-1-(tetrahydro-2H-pyran-4-yl)-1,4-dihydropyridine-3-carboxamide]: the IC50 in assay [1] amounted to 23 nM; in assay [2] it was 5.6 nM.

Take `COc1cc2nccc(Oc3ccc(NC(=O)c4cn(C(C)C)c(C)c(-c5ccc(F)cc5)c4=O)nc3)c2cc1OC` [Example 27, N-(5-((6,7-dimethoxyquinolin-4yl)oxy)pyridin-2-yl)-5-(4-fluorophenyl)-1-isopropyl-6-methyl-4-oxo-1,4-dihydropyridine-3-carboxamide]: the half-inhibitory concentration (IC50) was 3 nM in assay [1] and 1.1 nM in assay [2].

`COc1ccc(-c2cn(C(C)C)cc(C(=O)Nc3ccc(Oc4ccnc5cc(OC)c(OC)cc45)cn3)c2=O)c(F)c1` [Example 31, N-(5-((6,7-dimethoxyquinolin-4yl)oxy)pyridin-2-yl)-5-(2-fluoro-4-methoxyphenyl)-1-isopropyl-4-oxo-1,4-dihydropyridine-3-carboxamide]: the results for the IC50 in assay [1] and in assay [2] were 23 nM and 44.7 nM, respectively.

Consider `COc1cc2nccc(Oc3ccc(NC(=O)c4cn(CC(=O)N5CCOCC5)cc(-c5ccc(F)cc5F)c4=O)nc3)c2cc1OC` [Example 15, 5-(2,4-difluorophenyl)-N-(5-((6,7-dimethoxyquinolin-4-yl)oxy)pyridin-2-yl)-1-(2-morpholino-2-oxoethyl)-4-oxo-1,4-dihydropyridine-3-carboxamide], for which the IC50 in assay [1] is 292 nM; in assay [2] it was 29.5 nM.

On to `COc1cc2nccc(Oc3ccc(NC(=O)c4cn(C(C)C)cc(-c5ccc(F)c(F)c5)c4=O)nc3)c2cc1OC` [Example 6], for which the IC50 in assay [1] was found to be 11 nM; in assay [2], 7.8 nM.

As to `CCc1c(-c2ccc(F)cc2)c(=O)c(C(=O)Nc2ccc(Oc3ccnc4cc(OC)c(OC)cc34)cn2)cn1C(C)C` [Example 29, N-(5-((6,7-dimethoxyquinolin-4yl)oxy)pyridin-2-yl)-6-ethyl-5-(4-fluorophenyl)-1-isopropyl-4-oxo-1,4-dihydropyridine-3-carboxamide], the IC50 is 6 nM in assay [1] and 2.5 nM in assay [2].

`COc1cc2nccc(Oc3ccc(NC(=O)c4cn(CC(=O)N(C)C)cc(-c5ccc(Cl)cc5)c4=O)nc3)c2cc1OC` [Example 25]: the results for the concentration for half-maximal inhibition (IC50) in assay [1] and in assay [2] were 54 nM and 9.5 nM, respectively.

As for `COc1cc2nccc(Oc3ccc(NC(=O)c4cn(C(C)C)c(C(C)C)c(-c5ccc(F)cc5)c4=O)nc3)c2cc1OC` [Example 38, N-(5-((6,7-dimethoxyquinolin-4yl)oxy)pyridin-2-yl)-5-(4-fluorophenyl)-1,6-diisopropyl-4-oxo-1,4-dihydropyridine-3-carboxamide], the IC50 in assay [1] was 18 nM.

Take `COc1cc2nc(C)cc(Oc3ccc(NC(=O)c4cn(C(C)C)cc(-c5ccc(F)cc5)c4=O)nc3)c2cc1OC` [Example 53, N-(5-((6,7-dimethoxy-2-methylquinolin-4-yl)oxy)pyridin-2-yl)-5-(4-fluorophenyl)-1-isopropyl-4-oxo-1,4-dihydropyridine-3-carboxamide]: the IC50 in assay [1] is above 1000 nM.
